Measured values as given in PubChem BioAssay AID248 (DTP/NCI, 2004).
Where “and” joins values, the source holds several entries; their conditions need not be identical. Equal entries are not always repeated. Inconclusive results and toxic doses are left out. No stated cut-off is given here; in the data, active means T/C of 150% or more; inactive means T/C below 125%.

System: L1210 leukemia ip in BDF1 mice, survival T/C
Test: NCI In Vivo Anticancer Drug Screen. Data for tumor model L1210 Leukemia (intraperitoneal) in B6D2F1 (BDF1) mice
Conditions: endpoint: mean survival time, higher = longer survival
Outline: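 Mice bearing the transplanted tumor received compound or vehicle. Survival of the treated group was divided by that of the vehicle-treated control group to give the ratio.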

[1] = dose: 100.0 mg/kg/injection, schedule: Q04DX003 (ip), vehicle: saline with Tween-80
[2] = dose: 200.0 mg/kg/injection, schedule: Q04DX003 (ip), vehicle: saline with Tween-80
[3] = dose: 400.0 mg/kg/injection, schedule: Q04DX003 (ip), vehicle: saline with Tween-80
[4] = dose: 100.0 mg/kg/injection, schedule: Q01DX009 (ip), vehicle: saline
[5] = dose: 100.0 mg/kg/injection, schedule: Q01DX001 (ip), vehicle: saline
[6] = dose: 100.0 mg/kg/injection, schedule: Q01DX009 (ip), vehicle: Klucel (hydroxypropylcellulose) (HPC)
[7] = dose: 100.0 mg/kg/injection, schedule: Q04DX003 (ip), vehicle: Klucel (hydroxypropylcellulose) (HPC)
[8] = dose: 200.0 mg/kg/injection, schedule: Q01DX009 (ip), vehicle: Klucel (hydroxypropylcellulose) (HPC)
[9] = dose: 200.0 mg/kg/injection, schedule: Q04DX003 (ip), vehicle: Klucel (hydroxypropylcellulose) (HPC)
[10] = dose: 400.0 mg/kg/injection, schedule: Q04DX003 (ip), vehicle: Klucel (hydroxypropylcellulose) (HPC)
[11] = dose: 200.0 mg/kg/injection, schedule: Q01DX001 (ip), vehicle: saline

Measured: T/C

COc1cc2c(c(OC)c1OC)-c1ccc(OC)c(=O)cc1[C@@H](NC(=O)c1ccccc1)CC2
inactive: dose: 0.13 mg/kg/injection, schedule: Q01DX Z (ip), vehicle: methylcellulose (MC) 87 % of control | dose: 0.2 mg/kg/injection, schedule: Q01DX Z (ip), vehicle: methylcellulose (MC) 120 % of control | dose: 0.29 mg/kg/injection, schedule: Q01DX Z (ip), vehicle: methylcellulose (MC) 122 % of control | dose: 0.44 mg/kg/injection, schedule: Q01DX Z (ip), vehicle: methylcellulose (MC) 95 % of control | dose: 0.75 mg/kg/injection, schedule: Q01DX Z (ip), vehicle: methylcellulose (MC) 101 % of control | dose: 0.8 mg/kg/injection, schedule: Q01DX Z (ip), vehicle: methylcellulose (MC) 103 % of control | dose: 1.2 mg/kg/injection, schedule: Q01DX Z (ip), vehicle: methylcellulose (MC) 106 % of control | dose: 1.6 mg/kg/injection, schedule: Q01DX015 (ip), vehicle: carboxymethylcellulose (CMC) 108 % of control | dose: 1.8 mg/kg/injection, schedule: Q01DX Z (ip), vehicle: methylcellulose (MC) 103 % of control | dose: 2.5 mg/kg/injection, schedule: Q01DX015 (ip), vehicle: carboxymethylcellulose (CMC) 108 % of control | dose: 2.7 mg/kg/injection, schedule: Q01DX Z (ip), vehicle: methylcellulose (MC) 105 % of control | dose: 3.7 mg/kg/injection, schedule: Q01DX015 (ip), vehicle: carboxymethylcellulose (CMC) 123 % of control | dose: 4.0 mg/kg/injection, schedule: Q01DX Z (ip), vehicle: methylcellulose (MC) 114 % of control | dose: 5.0 mg/kg/injection, schedule: Q01DX001 (ip), vehicle: carboxymethylcellulose (CMC) 104 % of control | dose: 5.6 mg/kg/injection, schedule: Q01DX015 (ip), vehicle: carboxymethylcellulose (CMC) 108 % of control | dose: 8.4 mg/kg/injection, schedule: Q01DX015 (ip), vehicle: carboxymethylcellulose (CMC) 86 % of control | dose: 10.0 mg/kg/injection, schedule: Q01DX001 (ip), vehicle: carboxymethylcellulose (CMC) 120 % of control | dose: 20.0 mg/kg/injection, schedule: Q01DX001 (ip), vehicle: carboxymethylcellulose (CMC) 118 % of control | dose: 27.0 mg/kg/injection, schedule: Q01DX001 (ip), vehicle: carboxymethylcellulose (CMC) 120 % of control

O=CNc1ccccc1
inactive: [1] 96 % of control | [2] 98 % of control | [3] 98 % of control

O=C1CSC=C(c2ccccc2)O1
inactive: dose: 100.0 mg/kg/injection, schedule: Q04DX002 (ip), vehicle: saline with Tween-80 115 % of control | dose: 200.0 mg/kg/injection, schedule: Q04DX002 (ip), vehicle: saline with Tween-80 101 % of control | dose: 400.0 mg/kg/injection, schedule: Q04DX002 (ip), vehicle: saline with Tween-80 112 % of control

COc1cc(Br)c(/C=C/C(=O)O)cc1OC
inactive: [1] 95 % of control | [2] 93 % of control | [3] 92 % of control

C(#CCN1CCOCC1)CCCN1CCOCC1
inactive: dose: 100.0 mg/kg/injection, schedule: Q04DX003 (ip), vehicle: saline 96 % of control | dose: 200.0 mg/kg/injection, schedule: Q04DX003 (ip), vehicle: saline 95 % of control | dose: 400.0 mg/kg/injection, schedule: Q04DX003 (ip), vehicle: saline 93 % of control

CC1(C)OC2C(C(=O)N(CCO)CCO)OC(n3cnc4c(N)ncnc43)C2O1 (stereo not given)
inactive: dose: 75.0 mg/kg/injection, schedule: Q01DX001 (ip), vehicle: saline 102 % of control | dose: 75.0 mg/kg/injection, schedule: Q04DX003 (ip), vehicle: saline 106 % of control | dose: 150.0 mg/kg/injection, schedule: Q01DX001 (ip), vehicle: saline 104 % of control | dose: 150.0 mg/kg/injection, schedule: Q04DX003 (ip), vehicle: saline 106 % of control | dose: 300.0 mg/kg/injection, schedule: Q01DX001 (ip), vehicle: saline 101 % of control | dose: 300.0 mg/kg/injection, schedule: Q04DX003 (ip), vehicle: saline 107 % of control

O=C(Nc1ccc(NC(=O)Nc2cc(C3=NCCN3)cc(C3=NCCN3)c2)cc1)Nc1cc(C2=NCCN2)cc(C2=NCCN2)c1
inactive: dose: 15.0 mg/kg/injection, schedule: Q01DX Z (ip), vehicle: saline 90 % of control

Cc1ccc(S)cc1
inactive: [4] 87 % of control

COc1ccc(CCNC(=O)C2CCN(CCc3ccc(OC)c(OC)c3)CC2)cc1OC
inactive: dose: 100.0 mg/kg/injection, schedule: Q01DX001 (ip), vehicle: carboxymethylcellulose (CMC) 102 % of control | dose: 200.0 mg/kg/injection, schedule: Q01DX001 (ip), vehicle: carboxymethylcellulose (CMC) 96 % of control | dose: 400.0 mg/kg/injection, schedule: Q01DX001 (ip), vehicle: carboxymethylcellulose (CMC) 89 % of control

c1cc2c(c3c1CC1c4cc5c(cc4CCN1C3)OCO5)OCO2 (stereo not given)
inactive: [5] 86 % of control

N#CC(N)=NC1CCC(C2CCC(N)CC2)CC1 (stereo not given)
inactive: [6] 97 % of control | [7] 107 % of control | [8] 97 % of control | [9] 94 % of control | dose: 400.0 mg/kg/injection, schedule: Q01DX009 (ip), vehicle: Klucel (hydroxypropylcellulose) (HPC) 98 % of control | [10] 97 % of control

Cc1cc(OCCOC(=O)Nc2cccc(C(F)(F)F)c2)cc(C)c1Cl
inactive: dose: 25.0 mg/kg/injection, schedule: Q01DX009 (ip), vehicle: saline with Tween-80 102 % of control | dose: 50.0 mg/kg/injection, schedule: Q01DX009 (ip), vehicle: saline with Tween-80 102 % of control | dose: 100.0 mg/kg/injection, schedule: Q01DX009 (ip), vehicle: saline with Tween-80 98 % of control and 118 % of control | dose: 200.0 mg/kg/injection, schedule: Q01DX009 (ip), vehicle: saline with Tween-80 93 % of control | dose: 400.0 mg/kg/injection, schedule: Q01DX009 (ip), vehicle: saline with Tween-80 91 % of control

Cc1ccc(-c2ccc(C)cc2)cc1
inactive: [7] 98 % of control | [9] 95 % of control | [10] 98 % of control

Clc1cnc[nH]1
inactive: dose: 25.0 mg/kg/injection, schedule: Q01DX009 (ip), vehicle: saline 105 % of control | dose: 50.0 mg/kg/injection, schedule: Q01DX009 (ip), vehicle: saline 108 % of control | [5] 102 % of control | [4] 105 % of control | [11] 110 % of control | dose: 400.0 mg/kg/injection, schedule: Q01DX001 (ip), vehicle: saline 102 % of control

CCCCCCN(CCCCCC)[N+](=O)[O-]
inactive: dose: 100.0 mg/kg/injection, schedule: Q01DX001 (ip), vehicle: other 96 % of control | dose: 200.0 mg/kg/injection, schedule: Q01DX001 (ip), vehicle: other 100 % of control | dose: 400.0 mg/kg/injection, schedule: Q01DX001 (ip), vehicle: other 96 % of control

CS(=O)(=O)Nc1ccccc1N
inactive: [6] 95 % of control | [8] 93 % of control

CCOC(=O)CC1c2nc3ccccc3cc2CN1C(=O)CCOCc1ccccc1 (stereo not given)
inactive: dose: 10.0 mg/kg/injection, schedule: Q04DX003 (ip), vehicle: alcohol 92 % of control | dose: 20.0 mg/kg/injection, schedule: Q04DX003 (ip), vehicle: alcohol 92 % of control | dose: 40.0 mg/kg/injection, schedule: Q04DX003 (ip), vehicle: alcohol 100 % of control | dose: 80.0 mg/kg/injection, schedule: Q04DX003 (ip), vehicle: alcohol 96 % of control | dose: 160.0 mg/kg/injection, schedule: Q04DX003 (ip), vehicle: alcohol 89 % of control

CNNc1cc(CO)cnc1SC
inactive: [5] 105 % of control | [11] 104 % of control
